Results as given in patent US20120058974A1, “Composition comprising pesticide and benzotriazole UV absorbers” (BASF SE, priority 2009, published 2012).

How the values were obtained:
[1] = Determination of the surface tension; format: physicochemical; conditions: 25° C.; UV absorber concentrations from about 1 mg/l to 5,000 mg/l
Protocol: The surface tension (ST) of the UV absorbers 1C and 1F was determined at 25° C. at concentrations of the UV absorber of from about 1 mg/l to 5,000 mg/l (Table 4). The ST of water to air is, for comparison, 72.4 mN/m, the ST of commercial surfactants is about 30-35 mN/m. […] It was also shown that UV absorbers according to the invention are similar in surface activity to commercial surfactants.

[2] = UV-stabilizing effect: residual metaflumizone after exposure to light (Atlas Suntest), HPLC; format: physicochemical; conditions: dried film; for Residual metaflumizone content (%) after 1 day: continuous light 1 day; for Residual metaflumizone content (%) after 1 week: continuous light seven days
Protocol: UV-Stabilizing Effect A formulation comprising 100 g/l of metaflumizone and 40 g/l of UV absorber was prepared as described in Example 2. The formulation was diluted with water such that an active content of 10 g/l (Table 3) or 1 g/l (Table 4) was obtained.
About 20 mg of the formulation thus prepared were placed on a microscope slide, allowed to dry for 30 minutes and then exposed to light for one or seven days continuously (Atlas Suntest CRT plus, “Outdoor” setting, irradiation corresponds to the same spectrum and intensity as normal sunlight at midday in summer). After the exposure time, the samples were dissolved in dimethyl sulfoxide. The residual level of metaflumizone was determined by means of quantitative HPLC (column: BEH C18 1.7 μm 2.1×100; elution with a gradient of acetonitrile/0.1% H3PO4 rising from 5/95:95/5). For comparison, each exposure series run included a sample without UV absorber (reference). Evaluation: 2 samples were treated as blank samples by immediately redissolving them after drying, without exposure to light, and determining the metaflumizone content. The resulting mean was set equal to 100% and the remaining samples were standardized against that.
A commercial formulation of metaflumizone (Alverde®) comprising 240 g/l of metaflumizone was diluted with water to an active content of 10 g/l. Various UV absorbers were added (Table 5) and analyzed as described under Example 4A.

[3] = Alverde® diluted to 10 g/l metaflumizone, UV absorber added
[4] = formulation 100 g/l metaflumizone + 40 g/l UV absorber diluted to 1 g/l metaflumizone
[5] = formulation 100 g/l metaflumizone + 40 g/l UV absorber diluted to 10 g/l metaflumizone

Compound	ST (surface tension) [1]	Residual metaflumizone content (%) after 1 day [2, 3]	Residual metaflumizone content (%) after 1 week [2, 3]	Residual metaflumizone content (%) after 1 day [2, 4]	Residual metaflumizone content (%) after 1 week [2, 4]	Residual metaflumizone content (%) after 1 day [2, 5]	Residual metaflumizone content (%) after 1 week [2, 5]
3-(3-benzotriazol-2-yl-5-tert-butyl-4-hydroxyphenyl)propionic acid [tridecanol-EO18]ester [Example 1F]	34.7 mN/m	–	–	–	–	–	–
p-Aminobenzoic acid ethoxylate (45) [Uvinul ® P25]	56.9 mN/m	–	–	–	–	–	–
COCCOCCOCCOCCOCCOCCOCCOC(=O)CCc1cc(-n2nc3ccc(Cl)cc3n2)c(O)c(C(C)(C)C)c1 [Example 1J, 2-(5-chloro-2H-benzotriazol-2-yl)-6-tert-butyl-4-hydroxyphenylpropionic acid [Pluriol A350E]ester]	–	46%	30%	–	–	–	–
COCCOCCOCCOCCOCCOCCOCCOC(=O)CCc1cc(-n2nc3ccccc3n2)c(O)c(C(C)(C)C)c1 [Example 1C, 3-(3-benzotriazol-2-yl-5-tert-butyl-4-hydroxyphenyl)propionic acid [Pluriol A350E]ester]	39.5 mN/m	34%	1%	45%	16%	89%	55%
